This note sets out measurements from ChEMBL document CHEMBL1125132, “Synthesis and inhibitory potency of peptides corresponding to the subunit 2 C-terminal region of herpes virus ribonucleotide reductases” (J Med Chem, 1990).

Numbered stars: 1 amine (or outer) side, 2 acyl side, 3 side chain; on linkers, the order of the positions; unused ones are H or OH. Square brackets hold non-standard residues; d marks the D form. Peptide text beside a SMILES is read from it. * marks the point of attachment. ξ: configuration not given here. X1 = CC(C)[C@@H](C(=O)[*:2])N(CCCCCCCCO[*:3])[*:1]; Desaminotyrosyl = O=C(CCc1ccc(O)cc1)*; Thr(3ξ) = CC(O)[C@H](N)C(=O)O

For test [1], the target named is T1, Ribonucleoside-diphosphate reductase large subunit (Herpes simplex virus (type 1 / strain 17), UniProt P08543).
T1 sequence (P08543 whole entry): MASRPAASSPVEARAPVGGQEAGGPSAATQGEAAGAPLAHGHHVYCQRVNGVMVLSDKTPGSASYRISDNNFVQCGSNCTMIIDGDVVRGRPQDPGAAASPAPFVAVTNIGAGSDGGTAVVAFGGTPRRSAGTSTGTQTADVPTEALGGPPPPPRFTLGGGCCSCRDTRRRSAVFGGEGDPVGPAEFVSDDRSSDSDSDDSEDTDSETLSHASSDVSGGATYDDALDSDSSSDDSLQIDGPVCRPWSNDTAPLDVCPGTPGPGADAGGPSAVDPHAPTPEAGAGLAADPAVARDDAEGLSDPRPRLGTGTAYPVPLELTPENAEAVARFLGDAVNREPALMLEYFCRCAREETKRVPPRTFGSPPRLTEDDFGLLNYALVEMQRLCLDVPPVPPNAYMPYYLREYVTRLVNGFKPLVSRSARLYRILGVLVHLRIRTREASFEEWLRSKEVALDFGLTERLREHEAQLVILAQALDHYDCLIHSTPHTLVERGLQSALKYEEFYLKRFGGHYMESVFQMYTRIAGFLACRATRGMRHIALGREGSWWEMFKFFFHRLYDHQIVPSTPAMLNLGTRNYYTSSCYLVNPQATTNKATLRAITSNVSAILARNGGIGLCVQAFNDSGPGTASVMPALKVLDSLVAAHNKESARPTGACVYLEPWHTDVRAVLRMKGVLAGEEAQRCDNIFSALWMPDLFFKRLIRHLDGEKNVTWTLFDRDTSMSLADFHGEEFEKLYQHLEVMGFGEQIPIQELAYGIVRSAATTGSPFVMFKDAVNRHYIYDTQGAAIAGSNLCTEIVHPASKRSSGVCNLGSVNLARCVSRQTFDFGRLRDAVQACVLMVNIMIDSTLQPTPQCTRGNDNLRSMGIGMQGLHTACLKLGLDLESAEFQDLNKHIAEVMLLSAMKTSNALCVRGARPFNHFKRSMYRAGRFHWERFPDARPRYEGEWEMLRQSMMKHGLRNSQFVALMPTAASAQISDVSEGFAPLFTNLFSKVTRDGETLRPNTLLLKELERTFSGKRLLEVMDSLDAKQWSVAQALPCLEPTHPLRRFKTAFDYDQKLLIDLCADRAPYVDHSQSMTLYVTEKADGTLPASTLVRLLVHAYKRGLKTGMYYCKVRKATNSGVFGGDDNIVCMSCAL
The test can be described thus: Inhibitory activity against HSV-1 Ribonucleoside diphosphate reductase was determined. More on the design: species or system Human alphaherpesvirus 1.

Test [2] has as its target T1, Ribonucleoside-diphosphate reductase large subunit. The test can be described thus: Inhibitory activity was determined against HSV-1 Ribonucleoside diphosphate reductase. More on the design: species or system Human alphaherpesvirus 1.
Test [3] can be described thus: Relative inhibition compared to HSV-R2-(329-337) was determined; Inactive at 2 mM.
Test [4] is described as follows: Relative inhibition compared to HSV-R2-(329-337) was determined; Inactive at 1 mM.

Take `COc1ccc(C[C@H](NC(C)=O)C(=O)N[C@@H](C)C(=O)NCC(=O)N[C@@H](C)C(=O)N[C@H](C(=O)N[C@H](C(=O)N[C@@H](CC(N)=O)C(=O)N[C@@H](CC(=O)O)C(=O)N[C@@H](CC(C)C)C(=O)O)C(C)C)C(C)C)cc1`: in test [1], the IC50 (commonly the point on the concentration scale where inhibition reaches its midpoint) is 60 µM.
The same measure, in the same setting: to `COc1ccc(C[C@H](N)C(=O)N[C@@H](C)C(=O)NCC(=O)N[C@@H](C)C(=O)N[C@H](C(=O)N[C@H](C(=O)N[C@@H](CC(N)=O)C(=O)N[C@@H](CC(=O)O)C(=O)N[C@@H](CC(C)C)C(=O)O)C(C)C)C(C)C)cc1` belongs 60 µM; to `CC(C)C[C@H](NC(=O)[C@H](CC(=O)O)NC(=O)[C@H](CC(N)=O)NC(=O)[C@@H](NC(=O)[C@@H](NC(=O)[C@H](C)NC(=O)CNC(=O)[C@H](C)NC(=O)[C@@H](N)Cc1ccc(O)cc1)C(C)C)C(C)C)C(N)=O`, 60 µM.
In the case of `CSCC[C@H](NC(=O)[C@@H](NC(=O)[C@@H](N)Cc1ccc(O)cc1)[C@@H](C)O)C(=O)N[C@@H](CC(C)C)C(=O)N[C@H](C(=O)N[C@H](C(=O)N[C@@H](CC(=O)O)C(=O)N[C@@H](CC(=O)O)C(=O)N[C@@H](CC(C)C)C(=O)O)C(C)C)C(C)C`, the IC50 in test [1] was found to be 36 µM; in test [2], 110 µM.
The corresponding values for `CC(C)C[C@H](NC(=O)[C@H](CC(=O)O)NC(=O)[C@H](CC(N)=O)NC(=O)[C@@H](NC(=O)[C@@H](NC(=O)[C@H](C)NC(=O)CNC(=O)[C@H](C)NC(=O)[C@H](Cc1ccc(O)cc1)NC(=O)[C@H](CO)NC(=O)[C@@H](NC(=O)[C@H](CO)NC(=O)[C@H](CCCN=C(N)N)NC(=O)[C@H](CS)NC(=O)[C@H](CCC(=O)O)NC(=O)[C@H](Cc1ccccc1)NC(=O)[C@H](Cc1ccccc1)NC(=O)[C@H](CC(=O)O)NC(=O)[C@@H](N)[C@@H](C)O)[C@@H](C)O)C(C)C)C(C)C)C(=O)O` are 55 µM and 15 µM.
The corresponding values for `CC(=O)N[C@H](C(=O)N[C@H](C(=O)N[C@@H](CC(N)=O)C(=O)N[C@@H](CC(=O)O)C(=O)N[C@@H](CC(C)C)C(=O)O)C(C)C)C(C)C` are 60 µM and 400 µM.
In test [1], `CC(=O)N[C@H](Cc1ccc(O)cc1)C(=O)N[C@@H](C)C(=O)NCC(=O)N[C@@H](C)C(=O)N[C@H](C(=O)N[C@H](C(=O)N[C@@H](CC(N)=O)C(=O)N[C@@H](CC(=O)O)C(=O)N[C@@H](CC(C)C)C(=O)O)C(C)C)C(C)C` yielded an IC50 of 60 µM.
For the compound `CC(C)C[C@H](NC(=O)[C@H](CC(=O)O)NC(=O)[C@H](CC(N)=O)NC(=O)[C@@H](NC(=O)[C@@H](NC(=O)[C@H](C)NC(=O)CNC(=O)[C@H](C)NC(=O)[C@H](Cc1ccc(O)cc1)NC(=O)CCCCCCCN)C(C)C)C(C)C)C(=O)O`, the IC50 was 44 µM in test [1] and 12 µM in test [2].
For `CC(=O)N[C@@H](Cc1ccc(O)cc1)C(=O)N[C@H](C)C(=O)NCC(=O)N[C@@H](C)C(=O)N[C@H](C(=O)N[C@H](C(=O)N[C@@H](CC(N)=O)C(=O)N[C@@H](CC(=O)O)C(=O)N[C@@H](CC(C)C)C(=O)O)C(C)C)C(C)C`, the half-maximal inhibitory concentration (IC50) in test [1] worked out at 60 µM.
Same read-out and setting: the figure for `CC(=O)N[C@@H](Cc1ccc(O)cc1)C(=O)N[C@@H](C)C(=O)NCC(=O)N[C@@H](C)C(=O)N[C@H](C(=O)N[C@H](C(=O)N[C@@H](CC(N)=O)C(=O)N[C@@H](CC(=O)O)C(=O)N[C@@H](CC(C)C)C(N)=O)C(C)C)C(C)C` is 60 µM.
`CC(=O)N[C@@H](Cc1ccc(O)cc1)C(=O)N[C@@H](C)C(=O)NCC(=O)N[C@@H](C)C(=O)N[C@H](C(=O)N[C@H](C(=O)N[C@@H](CC(N)=O)C(=O)N[C@@H](CC(=O)O)C(=O)N[C@@H](CC(C)C)C(=O)O)C(C)C)C(C)C` yielded an IC50 in test [1] of 60 µM.
For the compound `CC(C)C[C@H](NC(=O)[C@H](CC(=O)O)NC(=O)[C@H](CC(N)=O)NC(=O)[C@@H](NC(=O)[C@@H](NC(=O)[C@H](C)NC(=O)CNC(=O)[C@H](C)NC(=O)CCc1ccc(O)cc1)C(C)C)C(C)C)C(=O)O` (Desaminotyrosyl-AGAVVNDL-OH), the IC50 in test [1] turned out to be 60 µM; in test [2], 33 µM.
Take `CC[C@H](C)[C@H](NC(=O)[C@@H](NC(=O)CNC(=O)[C@H](C)NC(=O)CCc1ccc(O)cc1)C(C)O)C(=O)N[C@@H](CC(N)=O)C(=O)N[C@@H](CC(=O)O)C(=O)N[C@@H](CC(C)C)C(=O)O` (some centres not stated) (Desaminotyrosyl-AG[Thr(3ξ)]INDL-OH): the IC50 in test [1] and in test [2] was 13 µM throughout.
Turning to `CC(C)C[C@H](NC(=O)[C@H](CC(=O)O)NC(=O)[C@@H](N)CC(N)=O)C(=O)O` (H-Asn-Asp-Leu-OH), the Relative inhibition in test [3] was 0%.
The same measure, in the same setting: the figure for `CC(C)C[C@H](NC(=O)[C@H](CC(=O)O)NC(=O)[C@H](CC(N)=O)NC(=O)[C@@H](N)C(C)C)C(=O)O` (H-VNDL-OH) is 0%.
Regarding `CC(C)C[C@H](NC(=O)[C@H](CC(=O)O)NC(=O)[C@H](CC(N)=O)NC(=O)[C@@H](NC(=O)[C@@H](NCCCCCCCCOC(=O)[C@@H](N)Cc1ccc(O)cc1)C(C)C)C(C)C)C(=O)O` (H-[X1](Tyr)VNDL-OH), the IC50 in test [1] and in test [2] was 63 µM in each case.
In test [1], Ac-YAGVVNDL-OH came in with a half-maximal inhibitory concentration (IC50) of 60 µM.
Same read-out and setting: the figure for Ac-YGAVVNDL-OH is 60 µM.
As to H-AAGAVVNDL-OH, the IC50 in test [1] and in test [2] was 280 µM in each case.
Take H-AGAVVNDL-OH: the IC50 in test [1] came out at 36 µM; in test [2] it was 283 µM.
For the compound H-AVVNDL-OH, the IC50 in test [1] and in test [2] was 190 µM throughout.
As for H-ECRSTSYAGAVVNDL-OH, the IC50 is 60 µM in test [1] and 42 µM in test [2].
As to H-FAGAVVNDL-OH, the IC50 in test [1] turned out to be 55 µM; in test [2], 90 µM.
Regarding H-GAVVNDL-OH, the IC50 in test [1] and in test [2] was 225 µM each time.
Take H-HAGAVVNDL-OH: the IC50 in test [1] came to 55 µM; in test [2], 323 µM.
The compound H-KYAGAVVNDL-OH had an IC50 in test [1] of 55 µM.
For H-LAGAVVNDL-OH, the IC50 in test [1] and in test [2] was 211 µM throughout.
With H-STSYAGAVVNDL-OH, the IC50 in test [1] stood at 60 µM; in test [2] it was 29 µM.
In test [3], H-YAGAAVNDL-OH returned a Relative inhibition of 0%.
H-YAGAVANDL-OH: the IC50 turned out to be 60 µM in test [1] and 760 µM in test [2].
Consider H-YAGAVINDL-OH, for which the half-inhibitory concentration (IC50) in test [1] was found to be 49 µM; in test [2], 33 µM.
As for H-YAGAVV-OH, the Relative inhibition in test [3] is 0%.
As to H-YAGAVVADL-OH, the Relative inhibition in test [4] is 0%.
For the compound H-YAGAVVN-OH, the Relative inhibition in test [3] was found to be 0%.
Compound H-YAGAVVNAL-OH came in with a Relative inhibition in test [4] of 0%.
As to H-YAGAVVND-OH, the Relative inhibition in test [3] amounted to 0%.
For the compound H-YAGAVVNDA-OH, the Relative inhibition in test [4] was 0%.
On the same count and under the same terms, to H-YAGAVVNDF-OH belongs 0%.
H-YAGAVVNDI-OH: the IC50 in test [1] was 55 µM; in test [2], 153 µM.
The corresponding values for H-YAGAVVNDLK-OH are 55 µM and 458 µM.
Regarding H-YAGAVVNDV-OH, the values for the IC50 in test [1] and in test [2] were 55 µM and 846 µM, respectively.
On to H-YAGAVVNDY-OH, for which the Relative inhibition in test [4] stood at 0%.
H-YAGPVVNDL-OH displayed a 50% inhibitory concentration (IC50) in test [1] of 44 µM.
On to H-YAGTVINDL-OH, for which 60 µM corresponded to half-maximal inhibition in test [1] (IC50).
Regarding H-YAGTVVNDL-OH, the IC50 was determined as 44 µM in test [1] and 29 µM in test [2].
Taken in the same sequence, the figures for H-YAPAVVNDL-OH were 44 µM and 37 µM.
In test [1], H-YAVVNDL-OH had an IC50 of 60 µM.
Take H-YGAVVNDL-OH: the IC50 in test [1] was found to be 60 µM; in test [2], 330 µM.
